Two compounds from US20060084704A1, “Methods and compositions for enhancing degradation of nuclear receptor transcription factors and uses thereof” (priority 2004, published 2006) can be followed below.

For assay [1], the target named is T1, LNCaP androgen receptor (endogenous mutant AR) (Homo sapiens, UniProt P10275, T878A).
T1 construct: LNCaP cells express an endogenous mutant AR that is found in prostate cancer patients; host or cells: LNCaP
T1 sequence (P10275 1-920 T878A): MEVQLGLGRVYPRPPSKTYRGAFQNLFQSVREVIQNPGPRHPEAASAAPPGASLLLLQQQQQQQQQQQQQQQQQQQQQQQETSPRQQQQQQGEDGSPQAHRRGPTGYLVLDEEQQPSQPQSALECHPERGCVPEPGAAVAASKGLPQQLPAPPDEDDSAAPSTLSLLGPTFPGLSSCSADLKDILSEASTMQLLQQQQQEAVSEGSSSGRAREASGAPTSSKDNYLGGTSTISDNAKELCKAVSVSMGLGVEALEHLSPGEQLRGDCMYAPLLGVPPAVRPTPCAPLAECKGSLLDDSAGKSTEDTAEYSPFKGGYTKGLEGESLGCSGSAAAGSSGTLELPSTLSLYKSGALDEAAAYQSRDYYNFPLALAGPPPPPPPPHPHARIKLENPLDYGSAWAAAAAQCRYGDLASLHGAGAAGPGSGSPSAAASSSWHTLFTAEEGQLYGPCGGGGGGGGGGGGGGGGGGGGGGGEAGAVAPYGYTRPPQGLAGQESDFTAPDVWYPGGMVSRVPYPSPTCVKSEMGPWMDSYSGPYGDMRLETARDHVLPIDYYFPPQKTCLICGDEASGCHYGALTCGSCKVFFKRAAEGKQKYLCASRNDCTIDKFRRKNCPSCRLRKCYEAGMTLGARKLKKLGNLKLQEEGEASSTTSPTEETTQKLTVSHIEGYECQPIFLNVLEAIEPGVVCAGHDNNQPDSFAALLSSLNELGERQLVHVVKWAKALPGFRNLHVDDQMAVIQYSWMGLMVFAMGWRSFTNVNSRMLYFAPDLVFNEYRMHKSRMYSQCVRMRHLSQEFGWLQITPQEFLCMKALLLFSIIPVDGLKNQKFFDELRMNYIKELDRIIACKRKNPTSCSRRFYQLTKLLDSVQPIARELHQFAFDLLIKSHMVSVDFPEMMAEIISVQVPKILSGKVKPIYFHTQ
Kind of assay: Androgen receptor transactivation assay in LNCaP cells (MMTV-luciferase reporter). The class given is cell-based. As to conditions: DHT 1 nM, JC9 0 uM to 7.5 uM. The text has this: Prostate cancer cells, non-prostate tumor cells, and normal cells can be used in this transient transfection assay, which measures transactivation of the androgen receptor (AR) and can be used to detect a reduction of AR activity caused by AR degradation. In the provided non-limiting example, CV-1 (green monkey kidney cells lacking an androgen receptor) and LNCaP cells (prostate cancer cells containing an endogenous mutant AR), were transfected with a plasmid carrying an androgen response element (ARE) and a reporter gene.
Both the CV-1 and LNCaP cells (obtained from ATCC, Manassas, Va.) were maintained in […] medium supplemented with penicillin (25 units/millilter), streptomycin (25 micrograms/milliliter), and 10% heat-inactivated fetal bovine serum (FBS). Cells were plated in 35-millimeter dishes at a concentration of 1-2×10^5cells/well and cultured at 37 degrees Celsius in an incubator under a 5% carbon dioxide atmosphere. […] The cells were lysed, and luciferase activity of the lysate was measured with the Dual-Luciferase Reporter Assay System (Promega, Madison, Wis.). Data were expressed as relative luciferase activity normalized to the internal luciferase positive control. […]
For orientation: Reporter assays use an easily measured gene product as a stand-in for the process of interest.

Another assay deals with LNCaP cells. Kind of assay: LNCaP growth assay (cell count). It counts as cell-based, human. As to conditions: 5 μM. How it is done: LNCaP cells express an endogenous mutant AR that is found in prostate cancer patients. This clinically relevant cell model was used to study JC9's effect in suppressing prostate cancer cell growth. Cells were plated at a density of 6.3×10^4 cells/well in 6-well tissue culture dishes. Two days later, the complete medium was aspired and 10% charcoal/dextran-treated (hormone depleted) serum-containing medium was added. Test compounds, JC9 and hydroxyflutamide (HF) were then added to the medium at a final concentration of 5 μM with or without 1 nM of DHT. For vehicle control, the same amount of DMSO was added. For the subsequent 5 days, the medium was aspired once per day, and fresh medium containing test compounds and/or DHT was added. At designated times, a portion of cells was harvested by trypsinization, and cell count was performed using a hemacytometer.

The next assay concerns the target T2, androgen receptor (AR) (Homo sapiens, UniProt P10275, T878A).
T2 construct: LNCaP cells express an endogenous mutant AR that is found in prostate cancer patients; host or cells: LNCaP
T2 sequence (P10275 1-920 T878A): T1 sequence (P10275 1-920 T878A)
Kind of assay: Western blot of LNCaP cell lysates, AR. As to conditions: 1 or 2 micromolar, 24 hours, presence or absence of DHT. The class given is cell-based. As for the experimental part:
Human prostate cancer LNCaP cells and T47D cells were plated at a density of 7×10^5 cells per 60 millimeter tissue culture dish in […] (RPMI) medium containing 10% FBS. The medium was changed to RPMI or DME medium containing 10% charcoal-stripped serum 24 hours later to deplete cellular androgens or estrogens. After another 24 hours, treatment with the test compounds began. The test dose of JC15 was 1 or 2 micromolar and the test does of JC9 was 1, 5 and 10 micromolar. LNCap cells also received dihydrotestosterone (DHT) (3 nanomolar). Control cells received a corresponding amount of the vehicle, dimethylsulfoxide (DMSO) (<0.04%) for an equivalent exposure time. Cells were incubated with JC15 for 24 or 48 hours, and were lysed in 250 microliters of 1×SDS/PAGE loading buffer. Approximately 40 micrograms of total cellular protein was loaded in each lane of a pre-cast gel (NuPAGE, Invitrogen). Protein separation and transfer were performed following the manufacturer's instructions.
For the prostate cell lysates, androgen receptor (AR) protein was visualized by incubating the resultant membranes with an anti-AR antibody (BD-PharMingen), followed by chemiluminescence detection (ECL Plus, Amersham). […] The resultant protein signals were quantified using densitometry and NIH ImageJ software.
Background: In western blotting, separated proteins are transferred to a membrane and probed.

As for `COc1ccc(C=CC(=O)C=C(O)C=Cc2ccc(OC)c(OC)c2)cc1OC` [JC9, 5-hydroxy-1,7-bis(3,4-dimethoxyphenyl)-1,4,6-heptatrien-3-one], the “LNCaP androgen receptor transactivation (relative luciferase activity)” value in assay [1] is recorded as “dose-dependent inhibition of LNCaP androgen receptor transactivation”. The “cell growth (cell number) in the presence of DHT” value in the assay on LNCaP cells (with 1 nM DHT, 5 days) is “good potency to decrease LNCaP cell growth”. In addition, the “cell growth (cell number)” value with LNCaP cells (without DHT, 5-day incubation) is listed as “only a minimal number of viable cells”.
As to `CCOC(=O)CCC(C(=O)C=Cc1ccc(O)c(OC)c1)C(=O)C=Cc1ccc(O)c(OC)c1` (stereo not shown) [JC15, 7-(4-hydroxy-3-methoxyphenyl)-4-[3-(4-hydroxy-3-methoxyphenyl)acryloyl]-5-oxo-hept-6-enoic acid ethyl ester], the “cellular concentration of AR” value on androgen receptor (AR) was “decreased”.
